Measurements published in PMC10178848, “Modulating fast skeletal muscle contraction protects skeletal muscle in animal models of Duchenne muscular dystrophy” (The Journal of Clinical Investigation, 2023).

Experiments:
JNK3 = biological target: T1, JNK3 (Homo sapiens, UniProt P53779); test: KINOMEscan scanEDGE; assay type: binding; conditions: 20 uM
T1 construct: purchased Eurofins DiscoverX (KINOMEscan; SAFETYscan E/IC50 ELECT)

Human Soleus myofibrils = test: Myofibril ATPase, human soleus; assay type: biochemical
Procedure: Myofibrils were prepared from various animals and tissues: rabbit psoas muscle and porcine cardiac muscle were purchased from Pel-Freez Biologicals. Human bicep and soleus muscle were purchased from BioIVT, and neonatal rat muscle was obtained in house. All myofibrils were prepared using published methods ([21]).
A lactate dehydrogenase/pyruvate kinase enzyme-coupled system ([62]) was used to monitor ATP hydrolysis rates in various muscle preparations. Rabbit psoas myofibrils were used for high-throughput screening at pCa 6.25 at 0.25 mg/mL. A multidrop cassette (Thermo Fisher Scientific) dispensed 10 μL of the coupled enzyme system, calcium, and myofibrils to 10 μL ATP, NADH and PEP to initiate the reaction prior to reading on a plate reader (Envision, Perkin Elmer) for 10 minutes per plate at room temperature. Hits were reconfirmed, and secondary assays were used to evaluate selectivity, including bovine cardiac myofibrils (pCa 5.86) and enzyme coupled hits with a hexokinase screen (Sigma-Aldrich).

T1 sequence (P53779 whole entry): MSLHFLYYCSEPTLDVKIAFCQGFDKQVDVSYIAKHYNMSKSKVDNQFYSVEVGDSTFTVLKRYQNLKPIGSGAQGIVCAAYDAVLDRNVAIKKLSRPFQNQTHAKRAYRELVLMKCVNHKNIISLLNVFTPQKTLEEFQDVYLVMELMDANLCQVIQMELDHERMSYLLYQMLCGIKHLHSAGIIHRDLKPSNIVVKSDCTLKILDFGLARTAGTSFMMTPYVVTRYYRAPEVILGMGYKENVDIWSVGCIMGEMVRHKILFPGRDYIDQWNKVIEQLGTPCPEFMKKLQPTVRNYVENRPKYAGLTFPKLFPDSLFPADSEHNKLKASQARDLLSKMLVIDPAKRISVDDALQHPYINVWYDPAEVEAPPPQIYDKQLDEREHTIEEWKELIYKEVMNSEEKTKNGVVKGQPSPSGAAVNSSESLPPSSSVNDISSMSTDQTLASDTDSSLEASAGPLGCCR

O=c1ccc(-c2cnc(OCC(F)(F)F)nc2)nn1Cc1cncc(F)c1 [EDG-5506]
binding, % of control (JNK3): 81 % of control | Maximum Inhibition (%) (Human Soleus myofibrils; human soleus myofibrils): 79% | IC50 (Human Soleus myofibrils; human soleus, 66% Type I, 33% IIa, IIx, at pCa 50): 1100 nM
